# In article PMC11470957, “Principles of paralog-specific targeted protein degradation engaging the C-degron E3 KLHDC2” (Nature Communications, 2024):
# Where two headings read alike, the source gives them in different places.
# Target: BRD2 (Homo sapiens, UniProt P25440)
# Test: Western blot of BRD2 levels after cellular dosing
# Details: for remaining activity at 2.19382 µM: Log SJ46420 (uM) 2.19382; for remaining activity at 2.79588 µM: Log SJ46420 (uM) 2.79588; for remaining activity at 3.09691 µM: Log SJ46420 (uM) 3.09691; for remaining activity at 3.39794 µM: Log SJ46420 (uM) 3.39794; for remaining activity at 3.69897 µM: Log SJ46420 (uM) 3.69897; for remaining activity at 4 µM: Log SJ46420 (uM) 4
# [1] = 22Rv1, read-out: BRD2 (DMSO = 100), 22Rv1 cells, Rep1, Rep2
# [2] = PC-3, read-out: BRD2 (DMSO = 100), PC3 cells, Rep1, Rep2
# BRD2, sequence (P25440 whole entry): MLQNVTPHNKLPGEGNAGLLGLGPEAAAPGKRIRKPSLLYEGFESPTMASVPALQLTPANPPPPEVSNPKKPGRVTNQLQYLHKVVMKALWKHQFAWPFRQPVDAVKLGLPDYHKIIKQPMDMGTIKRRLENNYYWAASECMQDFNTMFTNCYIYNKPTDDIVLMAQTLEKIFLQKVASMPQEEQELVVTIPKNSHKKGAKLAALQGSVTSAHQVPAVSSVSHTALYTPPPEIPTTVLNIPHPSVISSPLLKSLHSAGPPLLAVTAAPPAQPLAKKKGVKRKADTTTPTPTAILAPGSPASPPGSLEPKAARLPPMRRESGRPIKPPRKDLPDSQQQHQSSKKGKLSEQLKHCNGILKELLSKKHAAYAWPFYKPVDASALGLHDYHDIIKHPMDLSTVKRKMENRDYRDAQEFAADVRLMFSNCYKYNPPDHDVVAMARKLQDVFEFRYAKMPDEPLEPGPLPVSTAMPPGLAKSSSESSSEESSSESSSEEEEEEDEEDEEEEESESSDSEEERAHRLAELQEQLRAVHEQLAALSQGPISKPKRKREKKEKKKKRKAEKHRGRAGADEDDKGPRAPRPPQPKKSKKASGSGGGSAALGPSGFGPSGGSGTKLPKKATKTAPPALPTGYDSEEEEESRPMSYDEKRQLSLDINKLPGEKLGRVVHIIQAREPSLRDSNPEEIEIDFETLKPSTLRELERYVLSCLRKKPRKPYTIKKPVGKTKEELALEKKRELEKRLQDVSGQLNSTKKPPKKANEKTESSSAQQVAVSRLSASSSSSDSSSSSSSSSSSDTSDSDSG
smiles,measurement,setting,value
COC(=O)CNC(=O)Cc1csc(-c2ccc3cccc(OCCN4CCN(C(=O)C[C@@H]5N=C(c6ccc(Cl)cc6)c6c(sc(C)c6C)-n6c(C)nnc65)CC4)c3c2)n1 [SJ46420],remaining activity at 0.16 µM,"22Rv1, 24 h, read-out: BRD2 level relative to DMSO (100%), 22Rv1, 0.16µM, 24 h, Fig S6f",99 ± 7.4%
same,remaining activity at 0.31 µM,"22Rv1, 24 h, read-out: BRD2 level relative to DMSO (100%), 22Rv1, 0.31µM, 24 h, Fig S6f",92 ± 16%
same,remaining activity at 0.63 µM,"22Rv1, 24 h, read-out: BRD2 level relative to DMSO (100%), 22Rv1, 0.63µM, 24 h, Fig S6f",93 ± 8.7%
same,remaining activity at 1.3 µM,"22Rv1, 24 h, read-out: BRD2 level relative to DMSO (100%), 22Rv1, 1.3µM, 24 h, Fig S6f",88 ± 1.3%
same,remaining activity at 2.5 µM,"22Rv1, 24 h, read-out: BRD2 level relative to DMSO (100%), 22Rv1, 2.5µM, 24 h, Fig S6f",83 ± 5.5%
same,remaining activity at 5 µM,"22Rv1, 24 h, read-out: BRD2 level relative to DMSO (100%), 22Rv1, 5µM, 24 h, Fig S6f",87 ± 7.4%
same,remaining activity at 10 µM,"22Rv1, 24 h, read-out: BRD2 level relative to DMSO (100%), 22Rv1, 10µM, 24 h, Fig S6f",92 ± 5.6%
same,remaining activity at 2.19382 µM,[1],94.2%
same,remaining activity at 2.79588 µM,[1],98.7%
same,remaining activity at 3.09691 µM,[1],88.1%
same,remaining activity at 3.39794 µM,[1],87.2%
same,remaining activity at 3.69897 µM,[1],92.7%
same,remaining activity at 4 µM,[1],96.3%
same,Dmax,"22Rv1, read-out: BRD2 Dmax, 22Rv1, 24 h dose",0%
same,remaining activity at 0.156 µM,"22Rv1, read-out: BRD2 level, Western blot quantification (DMSO = 100), Fig S6f, 22RV1 KO/rescue Dose Response, 0.156 uM",94.2%
same,remaining activity at 0.625 µM,"22Rv1, read-out: BRD2 level, Western blot quantification (DMSO = 100), Fig S6f, 22RV1 KO/rescue Dose Response, 0.625 uM",98.7%
same,remaining activity at 1.25 µM,"22Rv1, read-out: BRD2 level, Western blot quantification (DMSO = 100), Fig S6f, 22RV1 KO/rescue Dose Response, 1.25 uM",88.1%
same,remaining activity at 2.5 µM,"22Rv1, read-out: BRD2 level, Western blot quantification (DMSO = 100), Fig S6f, 22RV1 KO/rescue Dose Response, 2.5 uM",87.2%
same,remaining activity at 5 µM,"22Rv1, read-out: BRD2 level, Western blot quantification (DMSO = 100), Fig S6f, 22RV1 KO/rescue Dose Response, 5 uM",92.7%
same,remaining activity at 10 µM,"22Rv1, read-out: BRD2 level, Western blot quantification (DMSO = 100), Fig S6f, 22RV1 KO/rescue Dose Response, 10uM",96.3%
same,remaining activity at 0.16 µM,"24 h, read-out: BRD2 level relative to DMSO (100%), PC3, 0.16µM, 24 h, Fig S6e",90 ± 11%
same,remaining activity at 0.31 µM,"24 h, read-out: BRD2 level relative to DMSO (100%), PC3, 0.31µM, 24 h, Fig S6e",98 ± 2.9%
same,remaining activity at 0.63 µM,"24 h, read-out: BRD2 level relative to DMSO (100%), PC3, 0.63µM, 24 h, Fig S6e",83 ± 3.4%
same,remaining activity at 1.3 µM,"24 h, read-out: BRD2 level relative to DMSO (100%), PC3, 1.3µM, 24 h, Fig S6e",89 ± 5.6%
same,remaining activity at 2.5 µM,"24 h, read-out: BRD2 level relative to DMSO (100%), PC3, 2.5µM, 24 h, Fig S6e",92 ± 9.1%
same,remaining activity at 5 µM,"24 h, read-out: BRD2 level relative to DMSO (100%), PC3, 5µM, 24 h, Fig S6e",91 ± 7.6%
same,remaining activity at 10 µM,"24 h, read-out: BRD2 level relative to DMSO (100%), PC3, 10µM, 24 h, Fig S6e",88 ± 9.1%
same,remaining activity at 0.2 µM,"AU565, 8 h, read-out: BRD2 level relative to DMSO (100%), AU565, 0.2µM, 8 h, Fig S6c",93 ± 3.1%
same,remaining activity at 1 µM,"AU565, 8 h, read-out: BRD2 level relative to DMSO (100%), AU565, 1µM, 8 h, Fig S6c",96 ± 6.2%
same,remaining activity at 5 µM,"AU565, 8 h, read-out: BRD2 level relative to DMSO (100%), AU565, 5µM, 8 h, Fig S6c",90 ± 5.1%
same,remaining activity at 0.2 µM,"AU565, read-out: BRD2 level, Western blot quantification (DMSO = 100), Fig S6c, AU565 Cells, 0.2 uM",91.6%
same,remaining activity at 1 µM,"AU565, read-out: BRD2 level, Western blot quantification (DMSO = 100), Fig S6c, AU565 Cells, 1 uM",101%
same,remaining activity at 5 µM,"AU565, read-out: BRD2 level, Western blot quantification (DMSO = 100), Fig S6c, AU565 Cells, 5 uM",87%
same,remaining activity at 2.5 µM,"HEK-293T, 24 h, read-out: BRD2 level relative to DMSO (100%), 293T, 2.5µM, 24 h, Fig S6a",89 ± 9.5%
same,remaining activity at 5 µM,"HEK-293T, 24 h, read-out: BRD2 level relative to DMSO (100%), 293T, 5µM, 24 h, Fig S6a",92 ± 2.5%
same,remaining activity at 2.5 µM,"HEK-293T, read-out: BRD2 level, Western blot quantification (DMSO = 100), Fig S6a, 293T cells, 2.5 uM",82%
same,remaining activity at 5 µM,"HEK-293T, read-out: BRD2 level, Western blot quantification (DMSO = 100), Fig S6a, 293T cells, 5 uM",91.4%
same,remaining activity at 2.5 µM,"MDA-MB-468, 24 h, read-out: BRD2 level relative to DMSO (100%), MDA-MB-468, 2.5µM, 24 h, Fig S6b",79 ± 8.9%
same,remaining activity at 5 µM,"MDA-MB-468, 24 h, read-out: BRD2 level relative to DMSO (100%), MDA-MB-468, 5µM, 24 h, Fig S6b",89 ± 3.9%
same,remaining activity at 10 µM,"MDA-MB-468, 24 h, read-out: BRD2 level relative to DMSO (100%), MDA-MB-468, 10µM, 24 h, Fig S6b",91 ± 3.1%
same,remaining activity at 2 µM,"MDA-MB-468, read-out: BRD2 level, Western blot quantification (DMSO = 100), Fig S6b, MDA-MB468 Cells, 2 uM",73.4%
same,remaining activity at 5 µM,"MDA-MB-468, read-out: BRD2 level, Western blot quantification (DMSO = 100), Fig S6b, MDA-MB468 Cells, 5 uM",86.5%
same,remaining activity at 10 µM,"MDA-MB-468, read-out: BRD2 level, Western blot quantification (DMSO = 100), Fig S6b, MDA-MB468 Cells, 10 uM",89.6%
same,remaining activity at 1.89279 µM,"PC-3, read-out: BRD2 (DMSO = 100), PC3 cells, Log SJ46420 (uM) 1.89279, Rep1, Rep2",89%
same,remaining activity at 2.19382 µM,[2],83.3%
same,remaining activity at 2.49485 µM,"PC-3, read-out: BRD2 (DMSO = 100), PC3 cells, Log SJ46420 (uM) 2.49485, Rep1, Rep2",100%
same,remaining activity at 2.79588 µM,[2],81.2%
same,remaining activity at 3.09691 µM,[2],85.7%
same,remaining activity at 3.39794 µM,[2],86.6%
same,remaining activity at 3.69897 µM,[2],86.5%
same,remaining activity at 4 µM,[2],81.6%
same,remaining activity at 1 µM,"SK-BR-3, 2 h, read-out: BRD2 level relative to DMSO (100%), SKBR3, 1µM, 2hr, Fig S6g",71 ± 3.9%
same,remaining activity at 5 µM,"SK-BR-3, 2 h, read-out: BRD2 level relative to DMSO (100%), SKBR3, 5µM, 2hr, Fig S6g",69 ± 10%
same,remaining activity at 1 µM,"SK-BR-3, 2 h, read-out: BRD2 level, Western blot quantification (DMSO = 100), Fig S6g, SKBR3 Time course, 1 uM, 2hr",67.4%
same,remaining activity at 5 µM,"SK-BR-3, 2 h, read-out: BRD2 level, Western blot quantification (DMSO = 100), Fig S6g, SKBR3 Time course, 5 uM, 2hr",61.5%
same,remaining activity at 1 µM,"SK-BR-3, 4 h, read-out: BRD2 level relative to DMSO (100%), SKBR3, 1µM, 4hr, Fig S6g",82 ± 4%
